How the values were obtained:
Hepatocyte = assay: Drug level in human hepatocytes treated with [14C]DTG at 50 uM after 4 to 20 hrs by radio-HPLC analysis; type: ADME, cell-based
[1] = target: UDP-glucuronosyltransferase 1A3 (Homo sapiens, UniProt P35503); assay: Drug level assessed as UDPGA-fortified human recombinant UGT1A3-mediated compound formation treated with [14C]DTG at 16 uM after 120 mins by radio-HPLC analysis; type: ADME; conditions: recombinant enzyme, 2 h
Liver microsome [2] = assay: Drug level in UDPGA-fortified human liver microsomes treated with [14C]DTG at 16 uM treated for 4 hrs by radio-HPLC analysis; type: ADME
[3] = target: UDP-glucuronosyltransferase 1A9 (Homo sapiens, UniProt O60656); assay: Drug level assessed as UDPGA-fortified human recombinant UGT1A9-mediated compound formation treated with [14C]DTG at 16 uM after 120 mins by radio-HPLC analysis; type: ADME; conditions: recombinant enzyme, 2 h
[4] = Drug level in human urine treated with parent drug [14C]DTG at 20 mg, po; type: ADME, tissue-based; conditions: in vivo
[5] = target: T1, UDP-glucuronosyltransferase 1A1 (Homo sapiens, UniProt P22309); assay: Drug level assessed as UDPGA-fortified human recombinant UGT1A1-mediated compound formation treated with [14C]DTG at 16 uM after 120 mins by radio-HPLC analysis; type: ADME; conditions: recombinant enzyme, 2 h
T1 sequence (P22309 whole entry): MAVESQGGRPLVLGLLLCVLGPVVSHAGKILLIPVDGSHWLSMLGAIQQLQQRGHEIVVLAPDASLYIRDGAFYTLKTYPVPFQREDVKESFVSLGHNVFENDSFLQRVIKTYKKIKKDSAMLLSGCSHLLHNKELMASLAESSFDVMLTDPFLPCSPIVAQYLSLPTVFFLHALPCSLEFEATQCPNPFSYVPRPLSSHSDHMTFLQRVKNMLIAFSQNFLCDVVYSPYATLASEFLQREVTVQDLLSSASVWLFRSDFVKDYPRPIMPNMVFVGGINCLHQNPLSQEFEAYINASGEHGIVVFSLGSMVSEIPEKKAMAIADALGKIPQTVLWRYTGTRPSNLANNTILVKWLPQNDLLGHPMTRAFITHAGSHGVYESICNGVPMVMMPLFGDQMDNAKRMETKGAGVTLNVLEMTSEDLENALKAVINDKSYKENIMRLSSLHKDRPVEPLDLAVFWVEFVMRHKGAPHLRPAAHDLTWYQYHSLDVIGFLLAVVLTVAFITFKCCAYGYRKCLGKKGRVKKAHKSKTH

Liver microsome [6] = assay: Drug level in human liver microsomes treated with [14C]DTG at 5 uM after 120 mins by radio-HPLC analysis; type: ADME; conditions: 2 h
Cytochrome P450 3A4 = Cytochrome P450 3A4 (Homo sapiens, UniProt P08684); assay: Drug level in supersomes expressing human recombinant CYP3A4 treated with [14C]DTG at 5 uM after 120 mins by radio-HPLC analysis; type: ADME; conditions: recombinant enzyme, 2 h
[7] = substrate: C[C@@H]1CCO[C@H]2Cn3cc(C(=O)NCc4ccc(F)cc4F)c(=O)c(O)c3C(=O)N12; assay: Drug metabolism in UDPGA-fortified human liver microsomes assessed as UGT1A1-mediated DTG glucuronide M2 ((2S,3S,4S,5R,6S)-6-((4R,12aS)-9-(2,4-difluorobenzylcarbamoyl)-4-methyl-6,8-dioxo-3,4,6,8,12,12a-hexahydro-2H-[1,3]oxazino[3,2-d]pyrido[1,2-a]pyrazin-7-yloxy)-3,4,5-trihydroxytetrahydro-2H-pyran-2-carboxylic acid) formation after 120 mins by radio-HPLC analysis; type: ADME
[8] = substrate: C[C@@H]1CCO[C@H]2Cn3cc(C(=O)NCc4ccc(F)cc4F)c(=O)c(O)c3C(=O)N12; assay: Drug metabolism assessed as human recombinant UGT1A1-mediated DTG glucuronide M2 ((2S,3S,4S,5R,6S)-6-((4R,12aS)-9-(2,4-difluorobenzylcarbamoyl)-4-methyl-6,8-dioxo-3,4,6,8,12,12a-hexahydro-2H-[1,3]oxazino[3,2-d]pyrido[1,2-a]pyrazin-7-yloxy)-3,4,5-trihydroxytetrahydro-2H-pyran-2-carboxylic acid) formation after 120 mins by radio-HPLC analysis; type: ADME

Chain of UDP-glucuronosyltransferase 1A9 (O60656 whole entry): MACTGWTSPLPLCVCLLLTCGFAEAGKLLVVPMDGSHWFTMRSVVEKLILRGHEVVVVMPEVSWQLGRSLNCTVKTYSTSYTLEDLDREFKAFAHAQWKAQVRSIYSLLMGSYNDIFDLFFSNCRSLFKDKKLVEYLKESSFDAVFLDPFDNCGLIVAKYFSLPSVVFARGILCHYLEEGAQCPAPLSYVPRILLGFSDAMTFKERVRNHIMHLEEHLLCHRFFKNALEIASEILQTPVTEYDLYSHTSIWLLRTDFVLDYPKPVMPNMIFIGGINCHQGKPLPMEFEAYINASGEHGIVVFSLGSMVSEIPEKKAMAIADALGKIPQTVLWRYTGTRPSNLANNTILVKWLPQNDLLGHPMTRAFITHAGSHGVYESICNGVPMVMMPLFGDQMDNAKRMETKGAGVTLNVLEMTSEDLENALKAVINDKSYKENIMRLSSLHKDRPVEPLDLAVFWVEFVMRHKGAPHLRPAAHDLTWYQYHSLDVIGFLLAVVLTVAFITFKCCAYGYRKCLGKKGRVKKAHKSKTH
Chain of Cytochrome P450 3A4 (P08684 whole entry): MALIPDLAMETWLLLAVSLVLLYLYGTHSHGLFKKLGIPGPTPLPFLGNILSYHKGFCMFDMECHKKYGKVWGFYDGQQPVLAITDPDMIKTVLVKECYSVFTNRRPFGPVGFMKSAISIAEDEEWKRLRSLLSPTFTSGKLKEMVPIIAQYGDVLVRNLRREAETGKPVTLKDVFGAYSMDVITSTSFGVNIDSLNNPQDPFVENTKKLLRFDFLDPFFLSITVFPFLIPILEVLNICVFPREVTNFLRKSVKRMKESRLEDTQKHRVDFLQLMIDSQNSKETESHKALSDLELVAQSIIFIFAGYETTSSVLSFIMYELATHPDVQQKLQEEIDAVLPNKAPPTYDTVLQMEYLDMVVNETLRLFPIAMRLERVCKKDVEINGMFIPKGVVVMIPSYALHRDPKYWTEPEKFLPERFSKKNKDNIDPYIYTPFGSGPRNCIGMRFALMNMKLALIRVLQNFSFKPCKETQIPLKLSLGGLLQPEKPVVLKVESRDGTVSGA
Chain of UDP-glucuronosyltransferase 1A3 (P35503 whole entry): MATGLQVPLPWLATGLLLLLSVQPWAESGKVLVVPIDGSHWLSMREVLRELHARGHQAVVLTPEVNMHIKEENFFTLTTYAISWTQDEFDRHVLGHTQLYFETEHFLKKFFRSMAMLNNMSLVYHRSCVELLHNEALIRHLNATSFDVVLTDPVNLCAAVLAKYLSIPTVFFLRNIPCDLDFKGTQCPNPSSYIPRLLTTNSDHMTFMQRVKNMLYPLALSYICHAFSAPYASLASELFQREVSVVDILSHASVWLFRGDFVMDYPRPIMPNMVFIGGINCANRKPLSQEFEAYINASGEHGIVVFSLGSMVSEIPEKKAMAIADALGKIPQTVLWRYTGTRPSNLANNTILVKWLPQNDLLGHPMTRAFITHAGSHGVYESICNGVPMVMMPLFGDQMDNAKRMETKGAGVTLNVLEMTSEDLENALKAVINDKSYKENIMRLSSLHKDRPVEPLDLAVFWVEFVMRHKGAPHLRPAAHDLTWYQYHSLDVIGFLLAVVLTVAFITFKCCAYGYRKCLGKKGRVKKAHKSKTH

C[C@@H]1CCO[C@H]2Cn3cc(C(=O)NCc4ccc(F)cc4F)c(=O)c(O[C@@H]4O[C@H](C(=O)O)[C@@H](O)[C@H](O)[C@H]4O)c3C(=O)N12
Drug metabolism (Hepatocyte): metabolite_detected | Drug metabolism [1]: metabolite_detected | Drug metabolism (Liver microsome [2]): metabolite_detected | Drug metabolism [3]: metabolite_detected | Drug excretion [4]: 18.9% | Drug metabolism [5]: metabolite_detected

C[C@@H]1CCO[C@H]2Cn3cc(C(=O)NC(O)c4ccc(F)cc4F)c(=O)c(O)c3C(=O)N12 (some centres not stated)
Drug metabolism (Liver microsome [6]): metabolite_detected | Drug excretion [4]: 3%

C[C@@H]1CCO[C@H]2Cn3cc(C(N)=O)c(=O)c(O)c3C(=O)N12
Drug excretion [4]: 3.6% | Drug metabolism (Cytochrome P450 3A4): metabolite_detected

B1: UDP-glucuronosyltransferase 1A1 (Homo sapiens) (protein)
chain: MAVESQGGRPLVLGLLLCVLGPVVSHAGKILLIPVDGSHWLSMLGAIQQLQQRGHEIVVLAPDASLYIRDGAFYTLKTYPVPFQREDVKESFVSLGHNVFENDSFLQRVIKTYKKIKKDSAMLLSGCSHLLHNKELMASLAESSFDVMLTDPFLPCSPIVAQYLSLPTVFFLHALPCSLEFEATQCPNPFSYVPRPLSSHSDHMTFLQRVKNMLIAFSQNFLCDVVYSPYATLASEFLQREVTVQDLLSSASVWLFRSDFVKDYPRPIMPNMVFVGGINCLHQNPLSQEFEAYINASGEHGIVVFSLGSMVSEIPEKKAMAIADALGKIPQTVLWRYTGTRPSNLANNTILVKWLPQNDLLGHPMTRAFITHAGSHGVYESICNGVPMVMMPLFGDQMDNAKRMETKGAGVTLNVLEMTSEDLENALKAVINDKSYKENIMRLSSLHKDRPVEPLDLAVFWVEFVMRHKGAPHLRPAAHDLTWYQYHSLDVIGFLLAVVLTVAFITFKCCAYGYRKCLGKKGRVKKAHKSKTH
Km [7]: 149 µM | Km [8]: 21 µM
